From publication PMC8761492 (Life Science Alliance, 2022)
Values after ≈ are worked out from the molar mass of the structure shown. Values joined by “and” are separate entries in the source; they are usually repeats but may differ in a detail not shown here. Identical values can stand only once. Like-named read-outs stand apart in the source and are kept apart here. Starred links: 1 amine or outer side, 2 acyl side, 3 side chain; linkers in the order of their positions; H or OH if unused. Positions of bridges follow the written chain, without caps; N, C: chain ends. Non-standard residues stand in square brackets, D forms with d. Residues, ends and D or L forms follow the SMILES beside them. *: point of attachment. X1 = CC[C@H](C)[C@@H](N[*:1])[C@@H](O)CC(=O)O[C@H](C(=O)[C@H](C)C(=O)[*:2])C(C)C; NMeY = CN[C@@H](Cc1ccc(O)cc1)C(=O)O; dNMeL = CN[C@H](CC(C)C)C(=O)O; Pyruvoyl = CC(=O)C(=O)*

Key:
HCoV-229E = experiment: Protocol estimate of target concentrations from the HCoV-229E experiment; settings: from IC50 0.555 µg/l assuming a Hill slope of 1
[1] = as above; settings: bovine, cell culture medium with 10% bovine serum
HCoV-229E-GFP virus = experiment: microbe, parasite or virus in culture; type: cell-based, human coronavirus 229E; settings: Huh-7 cells
SARS-CoV-2 B.1.1.7 = experiment: microbe, parasite or virus in culture; type: cell-based; settings: 24 h, mean ± SEM
SARS-CoV-2 [2] = test system: SARS-CoV-2; design: method as in PMID 33495306; settings: SARS-CoV-2 in vitro; cited from earlier work
SARS-CoV-2 [3] = experiment: SARS-CoV-2-induced cytopathic effect in Vero E6 cells (CellTiter-Glo); settings: read-out: IC50 against SARS-CoV-2-induced cytopathic effects, 3 d post infection
SARS-CoV-2 [4] = experiment: APLICOV-PC: SARS-CoV-2 viral load by qRT-PCR of nasopharyngeal samples; type: in vivo, human; settings: for mean viral load decline from baseline: all doses; for log10 viral load: individual patients, ND = not detected
Description: Secondary outcomes included change from baseline of viral load, as evaluated by quantitative PCR via central laboratory on nasopharyngeal exudate or sampled from the lower respiratory tract within 48 h before first administration of plitidepsin and on days 4, 7, 15, and 31, and the percentage of patients requiring oxygen therapy, noninvasive mechanical ventilation, invasive mechanical ventilation and/or intensive care unit admission, and the percentage of patients with a fatal outcome on days 7, 15, and 31.
Centralized assessments of nasopharyngeal samples were performed at SYNLAB. Viral RNA extraction from the samples was performed using the Maxwell HT Viral TNA (AX2340) Promega, on the Hamilton automated extraction platform. Detection of nCoV2019 was carried out with the kit: TaqPath TM COVID-19 RT-PCR KIT (A48102) Thermo Fisher Scientific. The positivity/negativity criteria used for the interpretation of the results are defined in Table S7.
Each sample was analyzed in triplicate, and the cycle threshold (CT) value obtained was extrapolated to the standard curve, so that a value of viral load is obtained per reaction for said sample. The quantification, in triplicate, of the viral load of the patient sample was carried out at each of the five time points.
For quantification, in each sample plate, eight points, in triplicate (24 PCR in total), of the plasmid IDT 2019 nCov Kit CDC EUA of known viral load was used to generate the standard line on which to extrapolate the results of the samples of the trial patients. The sensitivity of the analytical method is 10 mRNA copies/run. Assuming a starting sample volume of 200 μl, from which 100 μl of mRNA can be obtained, and that a single PCR run requires 5 μl mRNA, it can be estimated that the sensitivity for 100% of the replicates is 1,000 mRNA copies/ml (3 log10). For mathematical analysis and graphical visualization, an intermediate value of 1.5 log10 has been imputed to samples with undetected SARS-CoV-2 mRNA.

[5] = APLICOV-PC: central analysis of electrocardiograms; settings: 317 ECGs from 44 patients; no value above
[6] = cited from earlier work
[7] = 1-hour D1,8,15 q4wk, ref phase 1 programme
[8] = 1-hour iv D1-5 q3wk, ref APL-A-004-98
[9] = 3-hour D1,15 q4wk, ref phase 1 programme
[10] = 24-hour D1,8,15 q4wk, ref phase 1 programme
[11] = 24-hour D1,15 q4wk, plitidepsin alone, ref phase 1 programme

CC[C@H](C)[C@H]1NC(=O)[C@@H](NC(=O)[C@@H](CC(C)C)N(C)C(=O)[C@@H]2CCCN2C(=O)C(C)=O)[C@@H](C)OC(=O)[C@H](Cc2ccc(OC)cc2)N(C)C(=O)[C@@H]2CCCN2C(=O)[C@H](CC(C)C)NC(=O)[C@@H](C)C(=O)[C@H](C(C)C)OC(=O)C[C@@H]1O [Plitidepsin] (Pyruvoyl-P[dNMeL]T[X1]LP[NMeY](Me); ester 3-C)
IC90 estimated (HCoV-229E): 4.995 ng/mL (≈ 4.5 nM) | fraction unbound [1]: > 0.96 | concentration of plitidepsin with antiviral effect on HCoV-229E-GFP (HCoV-229E-GFP virus; as low as, equals 0.5 nM): ≤ 0.555 µg/L | IC50 (HCoV-229E-GFP virus; Human coronavirus 229E, study protocol, read-out: IC50 assumed from the HCoV-229E-GFP experiment): 0.5 nM and 0.000555 µg/mL | IC50 (SARS-CoV-2 B.1.1.7; Severe acute respiratory syndrome coronavirus 2, Caco-2, pretreated 2 h): 6.12 nM | IC50 (SARS-CoV-2 B.1.1.7; Severe acute respiratory syndrome coronavirus 2, Calu-3, pretreated 2 h): 5.87 nM | IC90 (SARS-CoV-2 [2]): 0.88 nM | IC50 (SARS-CoV-2 [3]): 38 nM | Mean time from baseline until undetectable viral load (SARS-CoV-2 [4]; 1.5 mg): 11 days | Mean time from baseline until undetectable viral load (SARS-CoV-2 [4]; 2.0 mg): 14 days | Mean time from baseline until undetectable viral load (SARS-CoV-2 [4]; 2.5 mg): 14 days | Mean change in viral load from baseline to (SARS-CoV-2 [4]; Day 4, 1.5 mg): −1.23 log10 copies/ml | Mean change in viral load from baseline to (SARS-CoV-2 [4]; Day 4, 2.0 mg): −1.49 log10 copies/ml | Mean change in viral load from baseline to (SARS-CoV-2 [4]; Day 4, 2.5 mg): −1.32 log10 copies/ml | Mean change in viral load from baseline to (SARS-CoV-2 [4]; Day 4, Total): −1.35 log10 copies/ml | Mean change in viral load from baseline to (SARS-CoV-2 [4]; Day 7, 1.5 mg): −2.55 log10 copies/ml | Mean change in viral load from baseline to (SARS-CoV-2 [4]; Day 7, 2.0 mg): −2.26 log10 copies/ml | Mean change in viral load from baseline to (SARS-CoV-2 [4]; Day 7, 2.5 mg): −2.25 log10 copies/ml | Mean change in viral load from baseline to (SARS-CoV-2 [4]; Day 7, Total): −2.35 log10 copies/ml | Mean change in viral load from baseline to (SARS-CoV-2 [4]; Day 15, 1.5 mg): −4.22 log10 copies/ml | Mean change in viral load from baseline to (SARS-CoV-2 [4]; Day 15, 2.0 mg): −2.70 log10 copies/ml | Mean change in viral load from baseline to (SARS-CoV-2 [4]; Day 15, 2.5 mg): −2.92 log10 copies/ml | Mean change in viral load from baseline to (SARS-CoV-2 [4]; Day 15, Total): −3.25 log10 copies/ml | Mean change in viral load from baseline to (SARS-CoV-2 [4]; Day 31, 1.5 mg): −4.70 log10 copies/ml | Mean change in viral load from baseline to (SARS-CoV-2 [4]; Day 31, 2.0 mg): −3.53 log10 copies/ml | Mean change in viral load from baseline to (SARS-CoV-2 [4]; Day 31, 2.5 mg): −3.49 log10 copies/ml | Mean change in viral load from baseline to (SARS-CoV-2 [4]; Day 31, Total): −3.85 log10 copies/ml | Mean time from baseline until undetectable viral load (SARS-CoV-2 [4]; Total): 13 days | mean viral load decline from baseline (SARS-CoV-2 [4]; day 4): 1.35 log10 copies/ml | mean viral load decline from baseline (SARS-CoV-2 [4]; day 7): 2.35 log10 copies/ml | mean viral load decline from baseline (SARS-CoV-2 [4]; day 15): 3.25 log10 copies/ml | mean viral load decline from baseline (SARS-CoV-2 [4]; day 31): 3.85 log10 copies/ml | log10 viral load (SARS-CoV-2 [4]; 1.5 mg/d, Day 4): 5.14 copies/ mL and 3.25 copies/ mL and 8.4 copies/ mL and 9.54 copies/ mL and 6.54 copies/ mL and 3.61 copies/ mL and 7.39 copies/ mL and 4.02 copies/ mL and 6.56 copies/ mL and 5.76 copies/ mL | log10 viral load (SARS-CoV-2 [4]; 1.5 mg/d, Day 7): 8.47 copies/ mL and 6.63 copies/ mL and 4.34 copies/ mL and 4.7 copies/ mL and 5.83 copies/ mL and 4.71 copies/ mL and 3.82 copies/ mL | log10 viral load (SARS-CoV-2 [4]; 1.5 mg/d, Day 15): 6.05 copies/ mL and 7.46 copies/ mL | log10 viral load (SARS-CoV-2 [4]; 1.5 mg/d, Day 31): 4.42 copies/ mL | log10 viral load (SARS-CoV-2 [4]; 2 mg/d, Day 4): 7.95 copies/ mL and 4.46 copies/ mL and 5.3 copies/ mL and 6.17 copies/ mL and 4.53 copies/ mL and 4.47 copies/ mL and 5.34 copies/ mL and 5.99 copies/ mL and 5.69 copies/ mL and 5.5 copies/ mL | log10 viral load (SARS-CoV-2 [4]; 2 mg/d, Day 7): 6.52 copies/ mL and 4.68 copies/ mL and 4.59 copies/ mL and 3.38 copies/ mL and 4.02 copies/ mL and 3.62 copies/ mL and 4.33 copies/ mL and 2.89 copies/ mL and 5.2 copies/ mL and 5.49 copies/ mL | log10 viral load (SARS-CoV-2 [4]; 2 mg/d, Day 15): 8.14 copies/ mL and 5.52 copies/ mL and 5.22 copies/ mL and 4.43 copies/ mL and 4.92 copies/ mL | log10 viral load (SARS-CoV-2 [4]; 2 mg/d, Day 31): 7.37 copies/ mL and 4.31 copies/ mL and 4.69 copies/ mL | log10 viral load (SARS-CoV-2 [4]; 2.5 mg/d, Day 4): 4.3 copies/ mL and 5.45 copies/ mL and 4.37 copies/ mL and 4.77 copies/ mL and 5.57 copies/ mL and 6.26 copies/ mL and 8.67 copies/ mL and 9.84 copies/ mL and 3.79 copies/ mL and 9.25 copies/ mL | log10 viral load (SARS-CoV-2 [4]; 2.5 mg/d, Day 7): 3.05 copies/ mL and 4.44 copies/ mL and 5.49 copies/ mL and 3.33 copies/ mL and 7.29 copies/ mL and 9.54 copies/ mL and 6.99 copies/ mL | log10 viral load (SARS-CoV-2 [4]; 2.5 mg/d, Day 15): 3.8 copies/ mL and 5.66 copies/ mL and 5.92 copies/ mL and 8.33 copies/ mL | log10 viral load (SARS-CoV-2 [4]; 2.5 mg/d, Day 31): 3.6 copies/ mL and 5.33 copies/ mL and 4.68 copies/ mL | mean time to undetectable viral load (SARS-CoV-2 [4]; patients with mild or moderate disease at baseline): 12 days | mean time to undetectable viral load (SARS-CoV-2 [4]; patients with severe disease at baseline): 15 days | QTcF [5]: ≤ 480 ms | δ QTcF [5]: ≤ 60 ms | MTD [6, 7]: 3.60 mg/m2 | RD [6, 7]: 3.2 mg/m2 | MTD [6, 8]: 1.35 mg/m2 | RD [6, 8]: 1.2 mg/m2 | MTD [6, 9]: 6 mg/m2 | RD [6, 9]: 5 mg/m2 | MTD [6, 10]: 4.50 mg/m2 | RD [6, 10]: 3.75 mg/m2 | MTD [6, 11]: 6 mg/m2 | RD [6, 11]: 5 mg/m2 | recommended dose for subsequent phase 2 studies ([6]; cancer patients, daily over 5 consecutive days): 1.2 mg/m^2/day
